Assay results: patent US8993606B2, “Oral formulations for treating metal overload” (FerroKin BioSciences, Inc., priority 2011, dated 2015)
Like-named read-outs stand apart in the source and are kept apart here.

Assay: Example 4: seven-day dosing in iron-overloaded human subjects (PK, tolerability)
Format: in vivo
Settings: for CL renal / half-life / Cmax / Tmax / AUC(0-t) / Vd/F: human; for CL renal: plasma and urine; for half-life / Cmax / Tmax / AUC(0-t) / Vd/F: plasma; for AUC(0-t): read-out: AUC(0-24); for Vd/F: read-out: Vz/F
Experimental: A dose-escalation study to assess the safety, tolerability, pharmacokinetics and pharmacodynamics of Compound 1, which correspond to a capsule formulation of (S)-3′-(OH)-DADFT-PE was conducted in 16 adult patients with iron overloaded consequent to transfusions. […] Compound 1 was supplied as capsules containing 50 mg, 100 mg, or 250 mg. The capsules were manufactured in accordance with Annex 13 and the principle of cGMP at Aptuit (10245 Hickman Mills Drive, Kansas City, Mo. 64137).
Patients 18 years or older with documented transfusional iron overload requiring chronic treatment with deferiprone, deferasirox or deferoxamine were eligible. Causes of iron overload included β-thalassemia major, α-thalassemia or α-thalassemia hydrops)(α°α°, sickle cell disease, and congenital dyserythropoietic anemia. Each of the four cohorts contained four patients. For the purposes of this study, transfusion dependence was defined as requiring eight or more transfusions per year. The iron burden inclusion criteria were defined as: (i) liver iron concentration greater than 2 mg/g (dry weight, liver) as determined by R2 magnetic resonance imaging; (ii) a cardiac magnetic resonance imaging T2* greater than 12 ms; and (iii) serum ferritin in excess of 600 ng/mL. Eligible patients who consented to participation in the study discontinued their regular chelation therapy for up to 5 days during a wash-out period prior to their first dose of Compound 1. Patients received Compound 1 in capsules taken orally in a fasted state.
In this study, a standard pharmacokinetic protocol of plasma sampling was performed throughout the 7 days of dosing and continuing for 3 days after the last dose on day 7. Actual blood sampling and urine collection times were used in all pharmacokinetic analyses. […] A formally validated bioanalytical method for quantifying total Compound 1 in human plasma and urine was developed. The drug was extracted from plasma using solid phase extraction and analyzed using high performance liquid chromatography with tandem mass spectrometric determination, and d3-[Compound 1] as an internal standard. The method was used to measure drug (MW 400) over the range of 5 to 2000 ng/mL (12.5-5000 nM) and at sample dilutions of 20- to 50-fold.
Pharmacokinetic parameters for Compound 1 were estimated using non-compartmental analysis. Only plasma and urine concentrations greater than the lower limits of quantitation (LOQ, 5 ng/mL in plasma, 5 ng/mL in urine) for the assays were used in the pharmacokinetic analysis.
Plasma concentrations, blood sampling times, urine concentrations, urine volumes, and the amount excreted in each interval, and pharmacokinetic parameters were listed by dose group and patient. Plasma concentrations and pharmacokinetic parameters were summarized by dose group using descriptive statistics: linearity with respect to Cmax and AUC(0-24) was assessed using the power model, i.e. P=a×Doseb, where P represents the parameter and a and b are constants. A log-log plot of P versus Dose is linear and a value of b of ≈1 indicates linearity. The equation was fitted to the individual patients' data using non-linear least squares regression. Parameters were compared among doses using descriptive statistics. Due to the small numbers of patients per panel, no formal statistical analyses were done.

`COCCOCCOCCOc1cccc(C2=N[C@@](C)(C(=O)O)CS2)c1O` [Compound 1, (S)-4,5-Dihydro-2-[2-hydroxy-3-(3,6,9-trioxadecyloxy)phenyl]-4-methyl-4-thiazolecarboxylate magnesium hydroxide] gave a CL/F (3 mg/kg daily 7 days oral) of 162 ± 85 mL/min, a CL/F (8 mg/kg daily 7 days oral) of 225 ± 142 mL/min and a CL/F (16 mg/kg daily 7 days oral) of 206 ± 78.4 mL/min. For the same compound, the CL/F (32 mg/kg daily 7 days oral) was 172 ± 60.1 mL/min, the “serious adverse events associated with the drug” value (3-32 mg/kg daily 7 days) was “no serious adverse events” and the “dose proportionality of plasma concentrations” value (all four doses 3-32 mg/kg) was “dose-proportional, linear pharmacokinetics”. The tolerability (daily for 7 days at doses up to 32 mg/kg) was “well tolerated at all dose levels”, the CL renal (3 mg/kg daily 7 days oral) was 75.2 ± 46.8 mL/min and the CL renal (8 mg/kg daily 7 days oral) was 105 ± 62.9 mL/min. The CL renal (16 mg/kg daily 7 days oral) was 83.2 ± 36.5 mL/min, the CL renal (32 mg/kg daily 7 days oral) was 73.6 ± 37.8 mL/min and the half-life (oral, 40 mg/kg, 5th cohort of four patients, read-out: Mean half life (t½) (converted)) was 26.6 h. It also gave a half-life (oral, across doses 3-32 mg/kg, read-out: t½ (converted)) of 19.2 h, a Cmax (3 mg/kg daily 7 days oral) of 5910 ± 2300 ng/mL and a Tmax (3 mg/kg daily 7 days oral) of 1.31 h. The AUC(0-t) (3 mg/kg daily 7 days oral) was 19500 ± 11300 ng·h/mL, the Vd/F (3 mg/kg daily 7 days oral) was 185 ± 84.1 L and the half-life (3 mg/kg daily 7 days oral, read-out: t½ (converted)) was 16.2 ± 8.32 h. The Cmax (8 mg/kg daily 7 days oral) was 15000 ± 4440 ng/mL, the Tmax (8 mg/kg daily 7 days oral) was 1.18 h and the AUC(0-t) (8 mg/kg daily 7 days oral) was 44900 ± 30800 ng·h/mL. The Vd/F (8 mg/kg daily 7 days oral) was 311 ± 137 L, the half-life (8 mg/kg daily 7 days oral, read-out: t½ (converted)) was 20.9 ± 11.3 h and the Cmax (16 mg/kg daily 7 days oral) was 38200 ng/mL. The Tmax (16 mg/kg daily 7 days oral) was 1 h, the AUC(0-t) (16 mg/kg daily 7 days oral) was 92300 ± 36600 ng·h/mL and the Vd/F (16 mg/kg daily 7 days oral) was 339 ± 166 L. The half-life (16 mg/kg daily 7 days oral, read-out: t½ (converted)) was 21.3 ± 11.8 h, the Cmax (32 mg/kg daily 7 days oral) was 60200 ± 27500 ng/mL and the Tmax (32 mg/kg daily 7 days oral) was 1.49 h. For the same compound, the AUC(0-t) (32 mg/kg daily 7 days oral) was 158000 ± 43500 ng·h/mL, the Vd/F (32 mg/kg daily 7 days oral) was 214 ± 2.94 L and the half-life (32 mg/kg daily 7 days oral, read-out: t½ (converted)) was 18.7 ± 4.48 h.
